Data set [1] can be described thus: Solid form conversion of slurry in water. The format is physicochemical. Particulars: 30% w/w slurry in water; after 5 hrs. An excerpt:
WG based core tablets can easily be converted into film-coated tablets with conventional coating operations. […] Looking at an unknown landscape of polymorphs for TNO155, WG was not pursued further.

Data set [2] can be described thus: Chemical compatibility study of drug substance alone and binary mixtures (HPLC). The format is physicochemical. Particulars: 4 weeks, 40° C./75% RH. The protocol:
For HPLC in Table 1, the following conditions were applied: • Mobile Phase A: 0.1% Trifluoroacetic acid in Water. • Mobile Phase B: Water:Acetonitrile(50:950 v/v) • Column: Aquity HSS T3, • Column Dimension: Length—100 mm, Internal Diameter—2.1 mm, Particle size—1.8 μm • Flow Rate: 0.5 mL/min • Detection: 220 nm • Column Temperature: 40° C. • Auto sampler Temperature: 22° C. • Injection Volume: 4 μL • Run Time: 13.0 minutes • Program: Gradient […] All excipients except PVP-K30 may still be suitable for formulation when used in ratios more realistic in a final formulation (see Example 2).

As to `C[C@@H]1OCC2(CCN(c3cnc(Sc4ccnc(N)c4Cl)c(N)n3)CC2)[C@@H]1N` [TNO155-BBA, (3S,4S)-8-(6-amino-5-((2-amino-3-chloropyridin-4-yl)thio)pyrazin-2-yl)-3-methyl-2-oxa-8-azaspiro[4.5]decan-4-amine succinate (1:1) hemihydrate form HA], in data set [1], the “Solid form stability in slurry” value was “solid form conversion”. Further, the “Assay of active ingredient” value worked out at 98.6% in data set [2] (closed) and 98.7% in data set [2] (open).

The record behind these values is patent US20250161223A1, “PHARMACEUTICAL FORMULATION” (Novartis AG, priority 2022, published 2025).
